From BindingDB's records for doi:10.1021/jm970522y (Parke-Davis Pharmaceutical Research, 1997) come the findings set out here.

The target in the assay is T1, Dimer of Gag-Pol polyprotein [489-587] (Human immunodeficiency virus 1, UniProt P12497).
T1 construct: 489-587
Put plainly: Protease Inhibition Assay. The conditions noted are these: pH 6.2; 37 °C. On the procedure:
For determination of IC50 values, HIV-1 protease was added to assay buffer containing inhibitor and the substrate (H-His-Lys-Ala-Arg-Val-Leu- (p-NO2) Phe-Glu-Ala-norleucine-Ser-NH2). The Leu- (p-NO2) Phe bond of the substrate was cleaved by the enzyme, and the substrate and products were separated by reversed-phase HPLC. Absorbance was measured at 220 nm, peak areas were determined, and percentage conversion to product was calculated.
In the case of `Cc1ccc(C(C)(C)C)c(SC2C(=O)CC(CCc3ccccc3)(c3ccccc3)OC2=O)c1` (stereo not drawn) [4-Hydroxy-5,6-dihydropyrone deriv. 49], the half-maximal inhibitory concentration (IC50) was 35 nM. The figure for `Cc1ccc(C(C)(C)C)c(SC2C(=O)CC(CCc3ccccc3)(c3ccc(N)cc3)OC2=O)c1` (stereo not drawn) [6-(4-aminophenyl)-3-[(2-tert-butyl-5-methylphenyl)sulfanyl]-4-hydroxy-6-(2-phenylethyl)-5,6-dihydro-2H-pyran-2-one] is 32 nM. The same measure for `COCc1cc(C(C)(C)C)c(SC2C(=O)CC(CCc3ccccc3)(c3ccc(OCCO)cc3)OC2=O)cc1C` (stereo not drawn) [3-{[2-tert-butyl-4-(methoxymethyl)-5-methylphenyl]sulfanyl}-4-hydroxy-6-[4-(2-hydroxyethoxy)phenyl]-6-(2-phenylethyl)-5,6-dihydro-2H-pyran-2-one]: 4.5 nM. On to `Cc1cc(SC2C(=O)CC(CCc3ccc(N)cc3)(C3CCCCC3)OC2=O)c(C(C)(C)C)cc1CO` (stereo not drawn) [PD 178390 Analog 36], for which the IC50 was determined as 3.2 nM. The same measure for `Cc1cc(SC2C(=O)CC(C)(CCc3ccc(O)cc3)OC2=O)c(C(C)(C)C)cc1CO` (stereo not drawn) [PD 178390 Analog 12]: 4.3 nM. `Cc1cc(SC2C(=O)CC(CCc3ccc(O)cc3)(C(C)C)OC2=O)c(C(C)(C)C)cc1CO` (stereo not drawn) [3-{[2-tert-butyl-4-(hydroxymethyl)-5-methylphenyl]sulfanyl}-4-hydroxy-6-[2-(4-hydroxyphenyl)ethyl]-6-(propan-2-yl)-5,6-dihydro-2H-pyran-2-one] had an IC50 of 3.6 nM. The same measure for `Cc1cc(SC2C(=O)CC(CCc3ccc(N)cc3)(c3ccccc3)OC2=O)c(C(C)(C)C)cc1CO` (stereo not drawn) [PD 178390 Analog 33]: 3.1 nM; for `Cc1cc(SC2C(=O)CC(CCc3ccccc3)(c3ccc(OCCO)cc3)OC2=O)c(C(C)(C)C)cc1O` (stereo not drawn) [3-[(2-tert-butyl-4-hydroxy-5-methylphenyl)sulfanyl]-4-hydroxy-6-[4-(2-hydroxyethoxy)phenyl]-6-(2-phenylethyl)-5,6-dihydro-2H-pyran-2-one]: 3.7 nM; for `Cc1cc(SC2C(=O)CC(CCc3ccccc3)(c3ccccc3)OC2=O)c(C(C)(C)C)cc1O` (stereo not drawn) [3-[(2-tert-butyl-4-hydroxy-5-methylphenyl)sulfanyl]-4-hydroxy-6-phenyl-6-(2-phenylethyl)-5,6-dihydro-2H-pyran-2-one]: 33 nM. The same measure for `Cc1cc(SC2C(=O)CC(CCc3ccccc3)(c3ccc(OCCO)cc3)OC2=O)c(C(C)(C)C)cc1CO` (stereo not drawn) [3-{[2-tert-butyl-4-(hydroxymethyl)-5-methylphenyl]sulfanyl}-4-hydroxy-6-[4-(2-hydroxyethoxy)phenyl]-6-(2-phenylethyl)-5,6-dihydro-2H-pyran-2-one]: 1.4 nM; for `Cc1cc(SC2C(=O)CC(CCc3ccccc3)(c3ccccc3)OC2=O)c(C(C)(C)C)cc1CO` (stereo not drawn) [PD 178390 Analog 38]: 6.6 nM. The same measure for `COc1cc(C(C)(C)C)c(SC2C(=O)CC(CCc3ccccc3)(c3ccccc3)OC2=O)cc1C` (stereo not drawn) [3-[(2-tert-butyl-4-methoxy-5-methylphenyl)sulfanyl]-4-hydroxy-6-phenyl-6-(2-phenylethyl)-5,6-dihydro-2H-pyran-2-one]: 15 nM; for `Cc1ccc(C(C)(C)C)c(SC2C(=O)CC(CCc3ccccc3)(c3ccc(O)cc3)OC2=O)c1` (stereo not drawn) [3-[(2-tert-butyl-5-methylphenyl)sulfanyl]-4-hydroxy-6-(4-hydroxyphenyl)-6-(2-phenylethyl)-5,6-dihydro-2H-pyran-2-one]: 40 nM; for `Cc1cc(SC2C(=O)CC(CCc3ccc(N)cc3)(C(C)C)OC2=O)c(C(C)(C)C)cc1CO` (stereo not drawn) [6-[2-(4-aminophenyl)ethyl]-3-{[2-tert-butyl-4-(hydroxymethyl)-5-methylphenyl]sulfanyl}-4-hydroxy-6-(propan-2-yl)-5,6-dihydro-2H-pyran-2-one]: 2.7 nM. Turning to `Cc1ccc(C(C)(C)C)c(SC2C(=O)CC(CCc3ccccc3)(c3ccc(OCCO)cc3)OC2=O)c1` (stereo not drawn) [3-[(2-tert-butyl-5-methylphenyl)sulfanyl]-4-hydroxy-6-[4-(2-hydroxyethoxy)phenyl]-6-(2-phenylethyl)-5,6-dihydro-2H-pyran-2-one], the IC50 was 12 nM. The same measure for `Cc1ccc(C(C)(C)C)c(SC2C(=O)CC(CCc3ccc(O)cc3)(c3ccccc3)OC2=O)c1` (stereo not drawn) [PD 178390 Analog 1]: 11 nM; for `Cc1cc(SC2C(=O)CC(CCc3ccccc3)(c3ccccc3)OC2=O)c(C(C)(C)C)cc1OCCO` (stereo not drawn) [PD 178390 Analog 41]: 6.8 nM.

The compound `Cc1cc(SC2C(=O)CC(CCc3ccc(O)cc3)(C3CCCCC3)OC2=O)c(C(C)(C)C)cc1CO` (stereo not drawn) [PD 178390 Analog 21] came in with an IC50 of 4.1 nM. The figure for `Cc1cc(SC2C(=O)CC(CCc3ccc(O)cc3)(c3ccc(O)cc3)OC2=O)c(C(C)(C)C)cc1CO` (stereo not drawn) [3-{[2-tert-butyl-4-(hydroxymethyl)-5-methylphenyl]sulfanyl}-4-hydroxy-6-(4-hydroxyphenyl)-6-[2-(4-hydroxyphenyl)ethyl]-5,6-dihydro-2H-pyran-2-one] is 120 nM.

With `Cc1cc(SC2C(=O)CC(CCc3cccc(N)c3)(c3ccccc3)OC2=O)c(C(C)(C)C)cc1CO` (stereo not drawn) [6-[2-(3-aminophenyl)ethyl]-3-{[2-tert-butyl-4-(hydroxymethyl)-5-methylphenyl]sulfanyl}-4-hydroxy-6-phenyl-5,6-dihydro-2H-pyran-2-one], the IC50 worked out at 4 nM.

On to `Cc1ccc(C(C)(C)C)c(SC2C(=O)CC(CCc3ccc(N)cc3)(c3ccccc3)OC2=O)c1` (stereo not drawn) [6-[2-(4-aminophenyl)ethyl]-3-[(2-tert-butyl-5-methylphenyl)sulfanyl]-4-hydroxy-6-phenyl-5,6-dihydro-2H-pyran-2-one], for which the IC50 was determined as 24 nM. The same measure for `Cc1cc(SC2C(=O)CC(CCc3ccccc3)(c3ccc(OCCO)cc3)OC2=O)c(C(C)(C)C)cc1OCCO` (stereo not drawn) [3-{[2-tert-butyl-4-(2-hydroxyethoxy)-5-methylphenyl]sulfanyl}-4-hydroxy-6-[4-(2-hydroxyethoxy)phenyl]-6-(2-phenylethyl)-5,6-dihydro-2H-pyran-2-one]: 6.4 nM.

`Cc1cc(SC2C(=O)CC(CCc3cccc(O)c3)(c3ccccc3)OC2=O)c(C(C)(C)C)cc1CO` (stereo not drawn) [3-{[2-tert-butyl-4-(hydroxymethyl)-5-methylphenyl]sulfanyl}-4-hydroxy-6-[2-(3-hydroxyphenyl)ethyl]-6-phenyl-5,6-dihydro-2H-pyran-2-one] came in with an IC50 of 2.5 nM.

In general, IC50 refers to the concentration that inhibits the measured activity by half. Read a high IC50 as a need for much substance.
